Experimental data reported in ChEMBL document CHEMBL4004821, “Design and synthesis of novel tetrandrine derivatives as potential anti-tumor agents against human hepatocellular carcinoma” (Eur J Med Chem, 2017).
Active and inactive are the calls of the source. The calls are words filed in the database; no cut-off is given here.

Assays:
MHCC97L [1] = assay: Cytotoxicity against human MHCC97L cells assessed as decrease in cell viability at 1.25 to 2.5 uM after 24 hrs in presence of caspase inhibitor Z-vad-fmk by MTT assay; assay type: functional, cell-based
[2] = Induction of apoptosis in human MHCC97L cells assessed as necrotic cells at 1.25 to 2.5 uM after 24 hrs by annexin V/7-AAD staining-based flow cytometric method (reference value: 3.44%); assay type: functional
[3] = Induction of apoptosis in human MHCC97L cells assessed as early apoptotic cells at 1.25 to 2.5 uM after 24 hrs by annexin V/7-AAD staining-based flow cytometric method (reference value: 0.601%); assay type: functional
MHCC97L [4] = assay: Cytotoxicity against human MHCC97L cells assessed as decrease in cell viability at 1.25 to 2.5 uM after 24 hrs in presence of JNK inhibitor SP600125 by MTT assay; assay type: functional, cell-based
MHCC97L [5] = assay: Induction of endoplasmic reticulum stress in human MHCC97L cells assessed as upregulation of GRP78 gene expression at 1.25 to 2.5 uM after 24 hrs by qRT-PCR method; assay type: functional, cell-based
PLC-PRF-5 [6] = assay: Cytotoxicity against human PLC/PRF/5 cells assessed as decrease in cell viability at 1.25 to 2.5 uM after 24 hrs in presence of necrosis inhibitor necrostatin-1 by MTT assay; assay type: functional, cell-based
[7] = target: T1, c-Jun N-terminal kinase, JNK (Homo sapiens) (UniProt P45983+P53779+P45984); assay: Induction of JNK phosphorylation in human PLC/PRF/5 cells at 1.25 to 2.5 uM after 24 hrs by immunoblot method; assay type: cell-based
[8] = Cell cycle arrest in human MHCC97L cells assessed as accumulation at S phase at 1.25 to 2.5 uM after 24 hrs by propidium iodide staining-based flow cytometric method (reference value: 18.41%); assay type: functional
PLC-PRF-5 [9] = assay: Cytotoxicity against human PLC/PRF/5 cells assessed as growth inhibition after 24 hrs by MTT assay; assay type: functional, cell-based; details: PLC-PRF-5, 24 h
PLC-PRF-5 [10] = assay: Cytotoxicity against human PLC/PRF/5 cells assessed as decrease in cell viability at 1.25 to 2.5 uM after 24 hrs in presence of autophagy inhibitor bafilomycin A1 by MTT assay; assay type: functional, cell-based
PLC-PRF-5 [11] = assay: Induction of endoplasmic reticulum stress in human PLC/PRF/5 cells at 1.25 to 2.5 uM after 24 hrs by ER tracker red staining-based fluorescence microscopic method; assay type: functional, cell-based
MHCC97L [12] = assay: Cytotoxicity against human MHCC97L cells assessed as decrease in cell viability at 1.25 to 2.5 uM after 24 hrs in presence of necrosis inhibitor necrostatin-1 by MTT assay; assay type: functional, cell-based
[13] = Potency index, ratio of sorafenib IC50 to test compound IC50 for human MHCC97L cells; assay type: functional
PLC-PRF-5 [14] = assay: Cell cycle arrest in human PLC/PRF/5 cells assessed as accumulation at G2/M phase at 1.25 to 2.5 uM after 24 hrs by propidium iodide staining-based flow cytometric method (reference value: 18.18%); assay type: functional
MHCC97L [15] = assay: Induction of endoplasmic reticulum stress in human MHCC97L cells assessed as upregulation of ATF4 gene expression at 1.25 to 2.5 uM after 24 hrs by qRT-PCR method; assay type: functional, cell-based
[16] = Cell cycle arrest in human MHCC97L cells assessed as accumulation at G0/G1 phase at 1.25 to 2.5 uM after 24 hrs by propidium iodide staining-based flow cytometric method (reference value: 65.24%); assay type: functional
MHCC97L [17] = assay: Induction of endoplasmic reticulum stress in human MHCC97L cells at 1.25 to 2.5 uM after 24 hrs by ER tracker red staining-based fluorescence microscopic method; assay type: functional, cell-based
[18] = Cytotoxicity against human MHCC97L cells assessed as growth inhibition after 24 hrs by MTT assay; assay type: functional, cell-based
MHCC97L [19] = assay: Cytotoxicity against human MHCC97L cells assessed as decrease in cell viability at 1.25 to 2.5 uM after 24 hrs in presence of autophagy inhibitor bafilomycin A1 by MTT assay; assay type: functional, cell-based
PLC-PRF-5 [20] = assay: Induction of endoplasmic reticulum stress in human PLC/PRF/5 cells assessed as upregulation of ATF4 gene expression at 1.25 to 2.5 uM after 24 hrs by qRT-PCR method; assay type: functional, cell-based
[21] = target: T1, c-Jun N-terminal kinase, JNK (Homo sapiens); assay: Induction of JNK activation in human MHCC97L cells assessed as increase in caspase 3 cleavage at 1.25 to 2.5 uM after 24 hrs by immunoblot method; assay type: cell-based
[22] = target: T1, c-Jun N-terminal kinase, JNK (Homo sapiens); assay: Induction of JNK activation in human PLC/PRF/5 cells assessed as increase in caspase 3 cleavage at 1.25 to 2.5 uM after 24 hrs by immunoblot method; assay type: cell-based
PLC-PRF-5 [23] = assay: Cell cycle arrest in human PLC/PRF/5 cells assessed as accumulation at S phase at 1.25 to 2.5 uM after 24 hrs by propidium iodide staining-based flow cytometric method (reference value: 20.73%); assay type: functional
PLC-PRF-5 [24] = assay: Induction of endoplasmic reticulum stress in human PLC/PRF/5 cells assessed as upregulation of GRP78 gene expression at 1.25 to 2.5 uM after 24 hrs by qRT-PCR method; assay type: functional, cell-based
PLC-PRF-5 [25] = assay: Induction of apoptosis in human PLC/PRF/5 cells assessed as late apoptotic cells at 1.25 to 2.5 uM after 24 hrs by annexin V/7-AAD staining-based flow cytometric method (reference value: 2.66%); assay type: functional
[26] = Induction of apoptosis in human MHCC97L cells assessed as late apoptotic cells at 1.25 to 2.5 uM after 24 hrs by annexin V/7-AAD staining-based flow cytometric method (reference value: 3.66%); assay type: functional
[27] = Potency index, ratio of tetrandrine IC50 to test compound IC50 for human MHCC97L cells; assay type: functional
PLC-PRF-5 [28] = assay: Cytotoxicity against human PLC/PRF/5 cells assessed as decrease in cell viability at 1.25 to 2.5 uM after 24 hrs in presence of JNK inhibitor SP600125 by MTT assay; assay type: functional, cell-based
PLC-PRF-5 [29] = assay: Induction of apoptosis in human PLC/PRF/5 cells assessed as viable cells at 1.25 to 2.5 uM after 24 hrs by annexin V/7-AAD staining-based flow cytometric method (reference value: 95%); assay type: functional
[30] = target: T1, c-Jun N-terminal kinase, JNK (Homo sapiens); assay: Induction of JNK phosphorylation in human MHCC97L cells at 1.25 to 2.5 uM after 24 hrs by immunoblot method; assay type: cell-based
PLC-PRF-5 [31] = assay: Potency index, ratio of tetrandrine IC50 to test compound IC50 for human PLC/PRF/5 cells; assay type: functional
MHCC97L [32] = assay: Cytotoxicity against human MHCC97L cells assessed as decrease in cell viability at 1.25 to 2.5 uM after 24 hrs in presence of endoplasmic reticulum stress reliever TUDCA by MTT assay; assay type: functional, cell-based
PLC-PRF-5 [33] = assay: Cell cycle arrest in human PLC/PRF/5 cells assessed as accumulation at G0/G1 phase at 1.25 to 2.5 uM after 24 hrs by propidium iodide staining-based flow cytometric method (reference value: 69.17%); assay type: functional
PLC-PRF-5 [34] = assay: Cytotoxicity against human PLC/PRF/5 cells assessed as decrease in cell viability at 1.25 to 2.5 uM after 24 hrs in presence of endoplasmic reticulum stress reliever TUDCA by MTT assay; assay type: functional, cell-based
PLC-PRF-5 [35] = assay: Induction of apoptosis in human PLC/PRF/5 cells assessed as necrotic cells at 1.25 to 2.5 uM after 24 hrs by annexin V/7-AAD staining-based flow cytometric method (reference value: 1.87%); assay type: functional
[36] = Cell cycle arrest in human MHCC97L cells assessed as accumulation at G2/M phase at 1.25 to 2.5 uM after 24 hrs by propidium iodide staining-based flow cytometric method (reference value: 20.60%); assay type: functional
PLC-PRF-5 [37] = assay: Cytotoxicity against human PLC/PRF/5 cells assessed as decrease in cell viability at 1.25 to 2.5 uM after 24 hrs in presence of caspase inhibitor Z-vad-fmk by MTT assay; assay type: functional, cell-based
PLC-PRF-5 [38] = assay: Potency index, ratio of sorafenib IC50 to test compound IC50 for human PLC/PRF/5 cells; assay type: functional
PLC-PRF-5 [39] = assay: Induction of apoptosis in human PLC/PRF/5 cells assessed as early apoptotic cells at 1.25 to 2.5 uM after 24 hrs by annexin V/7-AAD staining-based flow cytometric method (reference value: 0.467%); assay type: functional
[40] = Induction of apoptosis in human MHCC97L cells assessed as viable cells at 1.25 to 2.5 uM after 24 hrs by annexin V/7-AAD staining-based flow cytometric method (reference value: 93.4%); assay type: functional

With `COc1cc(NC(=O)c2ccco2)c2cc1Oc1ccc(cc1)C[C@H]1c3cc(c(OC)cc3CCN1C)Oc1c(OC)c(OC)cc3c1[C@H](C2)N(C)CC3` the Activity (MHCC97L [1]) was “inactive”, the Activity [2] was 4.18% and the Activity [3] was 9.76%. For the same molecule, the Activity (MHCC97L [4]) was “inactive”, the Activity (MHCC97L [5]) was “Active” and the Activity (PLC-PRF-5 [6]) was “Active”. The Activity [7] was “Active”, the Activity [8] was 21.59% and the IC50 (PLC-PRF-5 [9]) was 1230 nM. The Activity (PLC-PRF-5 [10]) was “Active”, the Activity (PLC-PRF-5 [11]) was “Active” and the Activity (MHCC97L [12]) was “Active”. For the same molecule, the “Ratio IC50” value [13] was 30.3, the Activity (PLC-PRF-5 [14]) was 17.78% and the Activity (MHCC97L [15]) was “Active”. For the same molecule, the Activity [16] was 68.52%, the Activity (MHCC97L [17]) was “Active” and the IC50 [18] was 890 nM. For the same molecule, the Activity (MHCC97L [19]) was “Active”, the Activity (PLC-PRF-5 [20]) was “Active” and the Activity [21] was “Active”. For the same molecule, the Activity [22] was “Active”, the Activity (PLC-PRF-5 [23]) was 21.55% and the Activity (PLC-PRF-5 [24]) was “Active”. The Activity (PLC-PRF-5 [25]) was 42.8%, the Activity [26] was 39.6% and the “Ratio IC50” value [27] was 15.8. The Activity (PLC-PRF-5 [28]) was “inactive”, the Activity (PLC-PRF-5 [29]) was 36.4% and the Activity [30] was “Active”. The “Ratio IC50” value (PLC-PRF-5 [31]) was 15.8, the Activity (MHCC97L [32]) was “inactive” and the Activity (PLC-PRF-5 [33]) was 67.11%. The Activity (PLC-PRF-5 [34]) was “inactive”, the Activity (PLC-PRF-5 [35]) was 3.9% and the Activity [36] was 18.29%. The Activity (PLC-PRF-5 [37]) was “inactive”, the “Ratio IC50” value (PLC-PRF-5 [38]) was 30.3 and the Activity (PLC-PRF-5 [39]) was 16.9%. It also gave an Activity [40] of 46.4%.
